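All cell lines were grown in 96-well plates and treated with compound for 48 hours. Definition used: TGI = concentration required for complete inhibition of growth.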
Legend:
Assay in all cases: NCI-60 cell line screen, 48 h
[1] = test system: IGROV1 ovarian
[2] = test system: CAKI-1 renal
[3] = test system: SR leukemia
[4] = test system: A498 renal
[5] = test system: SF-295 CNS
[6] = test system: U251 CNS
[7] = test system: HT29 colon
[8] = test system: 786-0 renal
[9] = test system: HCC-2998 colon
[10] = test system: OVCAR-8 ovarian
[11] = test system: EKVX NSCLC
[12] = test system: SF-539 CNS
[13] = test system: HCT-116 colon
[14] = test system: MDA-MB-231 breast
[15] = test system: KM12 colon
[16] = test system: TK-10 renal
[17] = test system: BT-549 breast
[18] = test system: RPMI-8226 leukemia
[19] = test system: UACC-62 melanoma
[20] = test system: PC-3 prostate
[21] = test system: MOLT-4 leukemia
[22] = test system: OVCAR-4 ovarian
[23] = test system: NCI/ADR-RES ovarian
[24] = test system: T-47D breast
[25] = test system: A549 NSCLC
[26] = test system: CCRF-CEM leukemia
[27] = test system: SW-620 colon
[28] = test system: K-562 leukemia
[29] = test system: NCI-H23 lung
[30] = test system: SF-268 CNS
[31] = test system: UACC-257 melanoma
[32] = test system: COLO 205 colon
[33] = test system: LOX IMVI melanoma
[34] = test system: SNB-19 CNS
[35] = test system: SK-MEL-28 melanoma
[36] = test system: MDA-MB-435
[37] = test system: HL-60(TB) leukemia
[38] = test system: OVCAR-5 ovarian
[39] = test system: M14 melanoma
[40] = test system: UO-31 renal
[41] = test system: MDA-N
[42] = test system: DU-145 prostate
[43] = test system: HCT-15 colon
[44] = test system: HOP-62 NSCLC
[45] = test system: SK-MEL-5 melanoma
[46] = test system: HOP-92 NSCLC
[47] = test system: SK-OV-3 ovarian
[48] = test system: OVCAR-3 ovarian
[49] = test system: NCI-H226 lung
[50] = test system: SK-MEL-2 melanoma
[51] = test system: ACHN renal
[52] = test system: SN12C renal
[53] = test system: SNB-75 CNS
[54] = test system: MALME-3M melanoma
[55] = test system: NCI-H522 lung
[56] = test system: RXF 393 renal
[57] = test system: NCI-H460 lung
[58] = test system: MCF7 breast

## CC(CO)(CBr)COC(=O)c1cc(Br)c(N)c(Br)c1 (configuration not stated)
[1]
  TGI: > 100 µM
[2]
  TGI: > 100 µM
[3]
  TGI: > 100 µM
[4]
  TGI: > 100 µM
[5]
  TGI: > 100 µM
[6]
  TGI: > 100 µM
[7]
  TGI: > 100 µM
[8]
  TGI: > 100 µM
[9]
  TGI: > 100 µM
[10]
  TGI: > 100 µM
[11]
  TGI: > 100 µM
[12]
  TGI: > 100 µM
[13]
  TGI: > 100 µM
[14]
  TGI: > 100 µM
[15]
  TGI: > 100 µM
[16]
  TGI: > 100 µM
[17]
  TGI: > 100 µM
[18]
  TGI: > 100 µM
[19]
  TGI: > 100 µM
[20]
  TGI: > 100 µM
[21]
  TGI: > 100 µM
[22]
  TGI: > 100 µM
[23]
  TGI: > 100 µM
[24]
  TGI: > 100 µM
[25]
  TGI: > 100 µM
[26]
  TGI: > 100 µM
[27]
  TGI: > 100 µM
[28]
  TGI: > 100 µM
[29]
  TGI: > 100 µM
[30]
  TGI: > 100 µM
[31]
  TGI: > 100 µM
[32]
  TGI: > 100 µM
[33]
  TGI: > 100 µM
[34]
  TGI: > 100 µM
[35]
  TGI: > 100 µM
[36]
  TGI: > 100 µM
[37]
  TGI: > 100 µM
[38]
  TGI: > 100 µM
[39]
  TGI: > 100 µM
[40]
  TGI: 11.3 µM
[41]
  TGI: > 100 µM
[42]
  TGI: > 100 µM
[43]
  TGI: > 100 µM
[44]
  TGI: > 100 µM
[45]
  TGI: > 100 µM
[46]
  TGI: 45.9 µM
[47]
  TGI: > 100 µM
[48]
  TGI: > 100 µM
[49]
  TGI: > 100 µM
[50]
  TGI: > 100 µM
[51]
  TGI: > 100 µM
[52]
  TGI: > 100 µM

## CC(C)[Si](OC1=C(C(=O)N(C)c2ccccc2Cl)CCCCC1)(C(C)C)C(C)C
[53]
  TGI: > 100 µM
[1]
  TGI: > 100 µM
[2]
  TGI: > 100 µM
[4]
  TGI: > 100 µM
[5]
  TGI: > 100 µM
[6]
  TGI: > 100 µM
[7]
  TGI: > 100 µM
[8]
  TGI: > 100 µM
[10]
  TGI: > 100 µM
[54]
  TGI: > 100 µM
[11]
  TGI: > 100 µM
[12]
  TGI: > 100 µM
[13]
  TGI: > 100 µM
[14]
  TGI: > 100 µM
[15]
  TGI: > 100 µM
[55]
  TGI: > 100 µM
[16]
  TGI: > 100 µM
[17]
  TGI: > 100 µM
[18]
  TGI: > 100 µM
[56]
  TGI: > 100 µM
[21]
  TGI: > 100 µM
[22]
  TGI: > 100 µM
[23]
  TGI: > 100 µM
[24]
  TGI: > 100 µM
[25]
  TGI: > 100 µM
[27]
  TGI: > 100 µM
[29]
  TGI: > 100 µM
[30]
  TGI: > 100 µM
[31]
  TGI: > 100 µM
[32]
  TGI: > 100 µM
[33]
  TGI: > 100 µM
[34]
  TGI: > 100 µM
[35]
  TGI: > 100 µM
[36]
  TGI: > 100 µM
[57]
  TGI: > 100 µM
[38]
  TGI: > 100 µM
[39]
  TGI: > 100 µM
[40]
  TGI: > 100 µM
[41]
  TGI: > 100 µM
[42]
  TGI: > 100 µM
[43]
  TGI: > 100 µM
[44]
  TGI: > 100 µM
[45]
  TGI: > 100 µM
[46]
  TGI: > 100 µM
[47]
  TGI: > 100 µM
[48]
  TGI: > 100 µM
[49]
  TGI: > 100 µM
[51]
  TGI: > 100 µM
[52]
  TGI: > 100 µM

## Cc1cc(O)c(C=NC(=S)c2ccccc2)c(=O)o1
[53]
  TGI: > 100 µM
[1]
  TGI: > 100 µM
[2]
  TGI: > 100 µM
[5]
  TGI: > 100 µM
[6]
  TGI: > 100 µM
[7]
  TGI: > 100 µM
[8]
  TGI: > 100 µM
[9]
  TGI: > 100 µM
[10]
  TGI: > 100 µM
[11]
  TGI: > 100 µM
[12]
  TGI: > 100 µM
[13]
  TGI: > 100 µM
[14]
  TGI: > 100 µM
[15]
  TGI: > 100 µM
[16]
  TGI: > 100 µM
[17]
  TGI: > 100 µM
[19]
  TGI: > 100 µM
[20]
  TGI: > 100 µM
[21]
  TGI: > 100 µM
[22]
  TGI: > 100 µM
[23]
  TGI: > 100 µM
[24]
  TGI: > 100 µM
[58]
  TGI: > 100 µM
[25]
  TGI: > 100 µM
[27]
  TGI: > 100 µM
[29]
  TGI: > 100 µM
[31]
  TGI: > 100 µM
[32]
  TGI: > 100 µM
[33]
  TGI: > 100 µM
[34]
  TGI: > 100 µM
[35]
  TGI: > 100 µM
[36]
  TGI: > 100 µM
[57]
  TGI: > 100 µM
[38]
  TGI: > 100 µM
[39]
  TGI: > 100 µM
[40]
  TGI: > 100 µM
[41]
  TGI: > 100 µM
[42]
  TGI: > 100 µM
[43]
  TGI: > 100 µM
[44]
  TGI: > 100 µM
[45]
  TGI: > 100 µM
[46]
  TGI: > 100 µM
[47]
  TGI: > 100 µM
[48]
  TGI: > 100 µM
[49]
  TGI: > 100 µM
[50]
  TGI: > 100 µM
[51]
  TGI: > 100 µM
[52]
  TGI: > 100 µM

## CC1=CC(=O)C(=CN2C(=O)/C(=C\c3cccnc3)NC2=S)C(=O)O1
[53]
  TGI: > 100 µM
[1]
  TGI: > 100 µM
[2]
  TGI: > 100 µM
[5]
  TGI: > 100 µM
[6]
  TGI: > 100 µM
[7]
  TGI: > 100 µM
[8]
  TGI: > 100 µM
[9]
  TGI: > 100 µM
[10]
  TGI: > 100 µM
[11]
  TGI: > 100 µM
[12]
  TGI: > 100 µM
[13]
  TGI: > 100 µM
[14]
  TGI: > 100 µM
[15]
  TGI: > 100 µM
[16]
  TGI: > 100 µM
[17]
  TGI: > 100 µM
[20]
  TGI: > 100 µM
[21]
  TGI: > 100 µM
[22]
  TGI: > 100 µM
[23]
  TGI: > 100 µM
[24]
  TGI: > 100 µM
[58]
  TGI: > 100 µM
[25]
  TGI: > 100 µM
[27]
  TGI: > 100 µM
[29]
  TGI: > 100 µM
[31]
  TGI: > 100 µM
[32]
  TGI: > 100 µM
[33]
  TGI: > 100 µM
[34]
  TGI: > 100 µM
[35]
  TGI: > 100 µM
[36]
  TGI: > 100 µM
[57]
  TGI: > 100 µM
[37]
  TGI: > 100 µM
[38]
  TGI: > 100 µM
[39]
  TGI: > 100 µM
[40]
  TGI: > 100 µM
[41]
  TGI: > 100 µM
[42]
  TGI: > 100 µM
[43]
  TGI: > 100 µM
[44]
  TGI: > 100 µM
[45]
  TGI: > 100 µM
[46]
  TGI: > 100 µM
[47]
  TGI: > 100 µM
[48]
  TGI: > 100 µM
[49]
  TGI: > 100 µM
[50]
  TGI: > 100 µM
[51]
  TGI: > 100 µM
[52]
  TGI: > 100 µM
